For test [1], the system named is low-density lipoprotein (LDL). As to the kind of experiment: percentage change in low-density lipoprotein in diabetic rats (FIG. 5). In kind it is in vivo, rat. Conditions: compared to white rice-fed and tween-treated rats.
Test [2] concerns high-density lipoprotein (HDL). Put plainly: percentage change in high-density lipoprotein in diabetic rats (FIG. 7). Type of test: in vivo, rat. Conditions: A200: ASG in 200 mg/kg body weight, compared to white-rice fed and metformin-treated rats.

For the molecule `CN(C)C(=N)N=C(N)N` [metformin, reference compound], the “LDL level (percentage change in low-density lipoprotein)” value in test [1] (fed/treated groups) is recorded as “reduced”.
Turning to acylated steryl glucoside [ASG], the “LDL level (percentage change in low-density lipoprotein)” value in test [1] (A100: ASG in 100 mg/kg body weight) and in test [1] (A200: ASG in 200 mg/kg body weight) was “reduced” in each case. Besides, the “HDL level (percentage change in high-density lipoprotein)” value in test [2] is “increased”.

Source of the values: patent US20140142053A1, “Use of a Composition Comprising Acylated Steryl Glucoside in the Manufacture of a Product” (UNIVERSITI PUTRA MALAYSIA, priority 2011, published 2014).
